This is an account of results in PMC3059997, “Exploring Indirect Sources of Human Exposure to Perfluoroalkyl Carboxylates (PFCAs): Evaluating Uptake, Elimination, and Biotransformation of Polyfluoroalkyl Phosphate Esters (PAPs) in the Rat” (Environmental Health Perspectives, 2010).

The nature of data set [1]: Uptake experiment: diPAP mixture by oral gavage, analytes in whole blood. Format: in vivo, Sprague-Dawley rats. To be noted: diPAP gavage dose, whole blood; for Cmax / Half-life: mean ± SE; for Cmax: values in parentheses < LOQ but > LOD; for Half-life: about 50 mg/kg each. The method, then: (§1) This research was conducted under an animal use protocol approved by the University of Toronto Animal Care Committee. All animals were treated humanely and with regard for alleviation of suffering. Sprague-Dawley rats were obtained from Charles River Laboratories Inc. (Sherbrooke, QC, Canada) The animals were singly housed and exposed to a 12/12 hr light/dark cycle with food and water available ad libitum. Blood samples were collected from the saphenous vein using Microvette CB 300 vials (Sarstedt AG & Co., Montreal, QC, Canada) embedded with lithium-heparin as an anticoagulant. Whole-blood samples were stored at −20°C, and urine and feces samples were stored at 4°C.
(§2) Two groups of four 8-week-old male rats were administered a mixture of 4:2, 6:2, 8:2, and 10:2 diPAP or monoPAP, respectively, each at about 50 mg/kg, at 4 mL/kg by oral gavage without prior fasting. […] Two control male rats were administered clean vehicle at 4 mL/kg [for details, see Supplemental Material, Table 3 (doi:10.1289/ehp.1002409)].
(§3) Blood was collected from all animals 3 days before dosing to establish background contamination. For the uptake experiment, blood samples were collected at 1, 3, and 6 hr and 1, 2, 4, 7, 10, 14, 18, and 22 days after dosing. For the elimination experiment, blood samples were collected at 2, 4, and 6 hr and 1, 2, 4, 8, 11, 15, and 18 days after dosing. On the final sampling day, the animals were sacrificed by carbon dioxide asphyxiation, and about 10 mL of blood was collected by cardiac puncture into a BD Vacutainer embedded with lithium-heparin.
(§4) The compounds of interest fall into four categories: a) the diPAP and monoPAP parent compounds, b) the saturated and unsaturated fluorotelomer carboxylic acid (FTCA and FTUCA) metabolic intermediates, c) the FTOH-sulfate and FTOH-glucuronide phase II metabolites, and d) the final PFCA biotransformation products [see Supplemental Material, Table 1 (doi:10.1289/ehp.1002409)]. We analyzed these compounds in whole blood, urine, and feces samples. For full analytical details, see Supplemental Material. All PFCAs, FTCAs, FTUCAs, and phase II metabolites were quantified by internal calibration. Because internal standards were not available, monoPAPs and diPAPs were quantified by standard addition. We performed spike and recovery experments to validate the extraction and quantification techniques used (for details, see Supplemental Material).
(§5) Analyte and matrix specific limits of detection (LODs) and limits of quantification (LOQs) are provided in Supplemental Material (doi:10.1289/ehp.1002409). For the purpose of calculating means, values < LOD were assigned a value of zero, and values < LOQ but > LOD were used unaltered but are indicated by asterisks in figures and parentheses in tables. Values are presented using the arithmetic mean ± SE. Full data sets are available in Supplemental Material. […]

A short description of data set [2]: Elimination experiment: monoPAP mixture by IV injection, analytes in whole blood. It counts as in vivo, Sprague-Dawley rats. Particulars: monoPAP IV dose; for Half-life: about 15 mg/kg each, PFCA product in whole blood; for Cmax / Tmax: whole blood. The protocol: as §1
(§6) Two groups of four 8-week-old male rats were administered a mixture of 4:2, 6:2, 8:2, and 10:2 diPAP or monoPAP, respectively, each at about 15 mg/kg, at 2 mL/kg by intravenous (IV) injection into the lateral tail vein. The dosing vehicle was 50:50 propylene glycol:water. Two control male rats were administered clean vehicle at 2 mL/kg [for details see Supplemental Material, Table 3 (doi:10.1289/ehp.1002409)].
as §3, §4
(§7) Analyte and matrix specific limits of detection (LODs) and limits of quantification (LOQs) are provided in Supplemental Material (doi:10.1289/ehp.1002409). For the purpose of calculating means, values < LOD were assigned a value of zero, and values < LOQ but > LOD were used unaltered but are indicated by asterisks in figures and parentheses in tables. Values are presented using the arithmetic mean ± SE. Full data sets are available in Supplemental Material.

On the set-up of data set [3]: method as in Chang et al. 2008; Ohmori et al. 2003. To be noted: male rats; ref Chang et al. 2008; Ohmori et al. 2003; cited from earlier work.
Data set [4] in a line: Elimination experiment: diPAP mixture by IV injection, analytes in whole blood. Format: in vivo, Sprague-Dawley rats. Particulars: diPAP IV dose, whole blood; for Half-life: about 15 mg/kg each. The protocol:
as §1, §6, §3, §4, §5

The nature of data set [5]: Uptake experiment: monoPAP mixture by oral gavage, analytes in whole blood. It counts as in vivo, Sprague-Dawley rats. Particulars: monoPAP gavage dose; for Tmax / Cmax: whole blood; for Cmax: values in parentheses < LOQ but > LOD. The protocol: as §1, §2, §3, §4, §7
Details of data set [6]: method as in Olsen et al. 2007. Particulars: ref Olsen et al. 2007; cited from earlier work.
[7] abbreviates: mean ± SE, values in parentheses < LOQ but > LOD.
The mark [8] stands for this setting: male, Sprague-Dawley, rat, in vivo, po, 50 mg/kg, read-out: Cmax.
Where [9] appears, read: male, Sprague-Dawley, rat, in vivo, po, 50 mg/kg, read-out: Tmax (converted).
Where [10] appears, read: male, Sprague-Dawley, rat, in vivo, 15 mg/kg, read-out: Tmax (converted).

Usually Cmax stands for the peak of the concentration-time curve. `O=C(O)C(F)(F)C(F)(F)C(F)(F)F` [PFBA, perfluorobutanoic acid]: the Tmax came out at 1 day days in data set [1], 6 h in data set [2], 1 day days in data set [4] and 1 day days in data set [5]. Further, the “Cmax” value in data set [1] is on record as 3.8 ± 1.0 ng/g; in data set [2], 7.3 ± 1.3 ng/g; in data set [4] (setting [7]), 20 ± 5 ng/g; in data set [5] it was 9.7 ± 1.9 ng/g. For the same molecule, the “Half-life” value in data set [2] was 12.7 ± 3.6 h; in data set [4] (mean ± SE), 79.2 ± 28.8 h. For the same molecule, the Serum half-lives entry in data set [3] was “on the order of hours”.

`O=C(O)C(F)(F)C(F)(F)C(F)(F)C(F)(F)C(F)(F)F` [PFHxA, perfluorohexanoic acid]: the “Half-life” value in data set [1] was 101 ± 31.2 h; in data set [2], 5.52 ± 5.52 h; in data set [4] (mean ± SE), 43.2 ± 12.2 h. The Tmax was found to be 4 h in data set [1], 4 h in data set [2], 1 day days in data set [4] and 4 h in data set [5]. Also, the “Cmax” value is on record as 10 ± 1.2 ng/g in data set [1], 5.6 ± 1.3 ng/g in data set [2] and 7.4 ± 1.5 ng/g in data set [5]. For the same molecule, the Serum half-lives entry in data set [3] is “on the order of hours”. The “Cmax (ng/g)” value in data set [4] (setting [7]) is “(3.0 ± 1.0) ^d ng/g”.

`O=C(O)C(F)(F)C(F)(F)C(F)(F)C(F)(F)C(F)(F)C(F)(F)C(F)(F)F` [PFOA, perfluorooctanoic acid]: the Cmax in data set [1] (setting [8]) was 7.2 ± 1.7 ng/g; in data set [2] (male, Sprague-Dawley, rat, in vivo, 15 mg/kg, read-out: Cmax), 8.5 ± 1.4 ng/g; in data set [4] (male, Sprague-Dawley, rat, in vivo, 15 mg/kg, mean ± SE, values in parentheses < LOQ but > LOD, read-out: Cmax), 9.3 ± 2.4 ng/g; in data set [5] (setting [8]), 28 ± 8 ng/g. In addition, the Tmax in data set [1] (setting [9]) is 96 h; in data set [2] (setting [10]), 96 h; in data set [4] (setting [10]) it was 48 h; in data set [5] (setting [9]) it was 24 h. Further, the Half-life in data set [1] (male, Sprague-Dawley, rat, in vivo, po, read-out: Half-life (converted)) is 264 h; in data set [2] (male, Sprague-Dawley, rat, in vivo, read-out: Half-life (converted)), 288 h; in data set [4] (male, Sprague-Dawley, rat, in vivo, mean ± SE, read-out: Half-life (converted)), 552 h; in data set [5] (male, Sprague-Dawley, rat, in vivo, po, about 50 mg/kg each, PFCA product in whole blood, read-out: Half-life (converted)), 240 h. In addition, in data set [6], the “Human serum half-life (arithmetic)” value is 4.5 years.
